From patent US20150031674A1, “SERINE/THREONINE KINASE INHIBITORS” (GENENTECH, INC., priority 2013, published 2015)

Biological target: human recombinant PAK1-KD protein (Homo sapiens, UniProt Q13153)
Test: PAK1-KD (Kinase Domain) IC50 Zlyte Assay (FRET peptide substrate phosphorylation)
Details: Z'-LYTE, Biological Example 1
From the text: PAK1-KD (Kinase Domain) IC50 Zlyte Assay Protocol
Activity of human recombinant PAK1-KD protein may be assessed in vitro by assay of the phosphorylation of a FRET peptide substrate. Catalytically active human recombinant PAK1-KD protein is obtained by purification from Tini cells infected with a human PAK1-KD recombinant baculovirus expression vector.
The activity/inhibition of PAK1-KD was estimated by measuring the phosphorylation of a FRET peptide substrate (Ser/Thr19) labeled with Coumarin and Fluorescein using Z′-LYTE™ assay (Invitrogen). The peptide substrate is a consensus sequence ([sequence]) based on various PAK substrates reported in the scientific literature. […] Incubations were carried out at 22° C. in black polypropylene 384-well plates (Corning Costar).

human recombinant PAK1-KD protein, sequence (Q13153 270-521 limits assumed): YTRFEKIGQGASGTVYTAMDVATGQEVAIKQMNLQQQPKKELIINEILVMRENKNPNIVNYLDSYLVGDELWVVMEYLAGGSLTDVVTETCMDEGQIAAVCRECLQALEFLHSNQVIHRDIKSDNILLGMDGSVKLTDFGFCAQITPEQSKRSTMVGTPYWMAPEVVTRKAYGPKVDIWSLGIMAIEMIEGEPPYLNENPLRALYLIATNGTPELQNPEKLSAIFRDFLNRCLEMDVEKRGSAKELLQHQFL

SMILES	Ki
Cc1cncc(-c2ccc(-c3cc4cnc(N)nc4n(C[C@H]4OC[C@H](N)CO4)c3=O)c(Cl)c2)n1 [Example I-163, 2-amino-8-[(5-amino-1,3-dioxan-2-yl)methyl]-6-[2-chloro-4-(6-methylpyrazin-2-yl)phenyl]pyrido[2,3-d]pyrimidin-7-one]	26.9 nM
Cc1cccc(-c2ccc(-c3cc4cnc(N)nc4n(CCCN)c3=O)c(C)c2)n1 [Example I-72, 2-Amino-8-(3-aminopropyl)-6-[2-methyl-4-(6-methyl-2-pyridyl)phenyl]pyrido[2,3-d]pyrimidin-7-one]	21.1 nM
Cc1cncc(-c2ccc(-c3cc4cnc(NC5COC5)nc4n(CCCC(N)=O)c3=O)c(Cl)c2)n1 [Example I-55, 4-[6-[2-Chloro-4-(6-methylpyrazin-2-yl)phenyl]-2-(oxetan-3-ylamino)-7-oxo-pyrido[2,3-d]pyrimidin-8-yl]butanamide]	29.8 nM
CNc1ncc2cc(-c3ccc(-c4cccc(C)n4)cc3C)c(=O)n(CC3C4CN(C)CC43)c2n1 (centres unmarked) [Example I-186, 2-(methylamino)-8-[(3-methyl-3-azabicyclo[3.1.0]hexan-6-yl)methyl]-6-[2-methyl-4-(6-methyl-2-pyridyl)phenyl]pyrido[2,3-d]pyrimidin-7-one]	11.9 nM
CCNc1ncc2cc(-c3ccc(-c4cccc(C)n4)cc3C)c(=O)n(CCC3CNCCO3)c2n1 (single isomer, unassigned) [Example I-112, 2-(Ethylamino)-6-(2-methyl-4-(6-methylpyridin-2-yl)phenyl)-8-(2-(morpholin-2-yl)ethyl)pyrido[2,3-d]pyrimidin-7(8H)-one]	1 nM
CNc1ncc2cc(-c3ccc(-c4csc(C)n4)cc3Cl)c(=O)n(C[C@H]3OC[C@H](N)CO3)c2n1 [Example I-190, 8-[(5-amino-1,3-dioxan-2-yl)methyl]-6-[2-chloro-4-(2-methylthiazol-4-yl)phenyl]-2-(methylamino)pyrido[2,3-d]pyrimidin-7-one]	15.2 nM
CNc1ncc2cc(-c3ccc(-c4cccc(C)n4)cc3Cl)c(=O)n(C[C@@H]3CNCCO3)c2n1 [Example I-173, 6-[2-chloro-4-(6-methyl-2-pyridyl)phenyl]-2-(methylamino)-8-[[(2S)-morpholin-2-yl]methyl]pyrido[2,3-d]pyrimidin-7-one]	12.9 nM
CCNc1ncc2cc(-c3ccc(-c4cccc(C)n4)cc3Cl)c(=O)n(CC(=O)N3CCOCC3)c2n1 [Example I-120, 6-[2-chloro-4-(6-methyl-2-pyridyl)phenyl]-2-(ethylamino)-8-(2-morpholino-2-oxo-ethyl)pyrido[2,3-d]pyrimidin-7-one]	20.8 nM
CCc1cc(-c2cccc(C)n2)ccc1-c1cc2cnc(NC3COC3)nc2n(C[C@H]2CNCCO2)c1=O [Example I-193, 6-[2-ethyl-4-(6-methyl-2-pyridyl)phenyl]-8-[[(2R)-morpholin-2-yl]methyl]-2-(oxetan-3-ylamino)pyrido[2,3-d]pyrimidin-7-one]	20.8 nM
CNC(=O)CCCn1c(=O)c(-c2ccc(-c3cccc(C)n3)cc2C)cc2cnc(NC3COC3)nc21 [Example I-87, N-methyl-4-[6-[2-methyl-4-(6-methyl-2-pyridyl)phenyl]-2-(oxetan-3-ylamino)-7-oxo-pyrido[2,3-d]pyrimidin-8-yl]butanamide]	30.5 nM
Cc1cncc(-c2ccc(-c3cc4cnc(NC(C)C)nc4n(CCC4CCNC4=O)c3=O)c(Cl)c2)n1 (centres unmarked) [Example I-100, 6-[2-Chloro-4-(6-methylpyrazin-2-yl)phenyl]-2-(isopropylamino)-8-[2-(2-oxopyrrolidin-3-yl)ethyl]pyrido[2,3-d]pyrimidin-7-one]	18.5 nM
CNc1ncc2cc(-c3ccc(-c4csc(C)n4)cc3Cl)c(=O)n(C[C@H]3CNCCO3)c2n1 [Example I-182, 6-[2-chloro-4-(2-methylthiazol-4-yl)phenyl]-2-(methylamino)-8-[[(2R)-morpholin-2-yl]methyl]pyrido[2,3-d]pyrimidin-7-one]	44.7 nM
CCNc1ncc2cc(-c3ccc(-c4cncc(C)n4)cc3Cl)c(=O)n(CCN3CCNC(=O)C3)c2n1 [Example I-130, 6-[2-chloro-4-(6-methylpyrazin-2-yl)phenyl]-2-(ethylamino)-8-[2-(3-oxopiperazin-1-yl)ethyl]pyrido[2,3-d]pyrimidin-7-one]	52.2 nM
CNc1ncc2cc(-c3ccc(-c4cncc(C)n4)cc3Cl)c(=O)n(CCOC3CNC3)c2n1 [Example I-46, 8-[2-(azetidin-3-yloxy)ethyl]-6-[2-chloro-4-(6-methylpyrazin-2-yl)phenyl]-2-(methylamino)pyrido[2,3-d]pyrimidin-7-one]	13.9 nM
Cc1cncc(-c2ccc(-c3cc4cnc(NC5(C)COC5)nc4n(CCCC(N)=O)c3=O)c(Cl)c2)n1 [Example I-41, 4-[6-[2-Chloro-4-(6-methylpyrazin-2-yl)phenyl]-2-[(3-methyloxetan-3-yl)amino]-7-oxo-pyrido[2,3-d]pyrimidin-8-yl]butanamide]	31 nM
CCNc1ncc2cc(-c3ccc(-c4cccc(C)n4)cc3Cl)c(=O)n(CCOC3CNC3)c2n1 [Example I-30, 8-[2-(azetidin-3-yloxy)ethyl]-6-[2-chloro-4-(6-methyl-2-pyridyl)phenyl]-2-(ethylamino)pyrido[2,3-d]pyrimidin-7-one]	9.9 nM

SMILES	Ki
CNc1ncc2cc(-c3ccc(-c4csc(C5CC5)n4)cc3Cl)c(=O)n(C[C@H]3CNCCO3)c2n1 [Example I-185, 6-[2-chloro-4-(2-cyclopropylthiazol-4-yl)phenyl]-2-(methylamino)-8-[[(2R)-morpholin-2-yl]methyl]pyrido[2,3-d]pyrimidin-7-one]	47.3 nM
CNc1ncc2cc(-c3ccc(-c4cccc(C)n4)cc3C)c(=O)n(C[C@@H]3CNCCO3)c2n1 [Example I-171, 6-(2-methyl-4-(6-methylpyridin-2-yl)phenyl)-2-(methylamino)-8-[[(2S)-morpholin-2-yl]methyl]pyrido[2,3-d]pyrimidin-7(8H)-one]	5 nM
CCNc1ncc2cc(-c3ccc(-c4cncc(C)n4)cc3Cl)c(=O)n(CC(O)CN)c2n1 (centres unmarked) [Example I-24, 8-(3-amino-2-hydroxy-propyl)-6-[2-chloro-4-(6-methylpyrazin-2-yl)phenyl]-2-(ethylamino)pyrido[2,3-d]pyrimidin-7-one]	27.3 nM
Cc1cncc(-c2ccc(-c3cc4cnc(NC5COC5)nc4n(CCCCO)c3=O)c(Cl)c2)n1 [Example I-50, 6-[2-Chloro-4-(6-methylpyrazin-2-yl)phenyl]-8-(4-hydroxybutyl)-2-(oxetan-3-ylamino)pyrido[2,3-d]pyrimidin-7-one]	45.6 nM
CCNc1ncc2cc(-c3ccc(-c4cncc(C)n4)cc3Cl)c(=O)n(C(C)COC3CNC3)c2n1 (single isomer, unassigned) [Example I-119, 8-[2-(azetidin-3-yloxy)-1-methyl-ethyl]-6-[2-chloro-4-(6-methylpyrazin-2-yl)phenyl]-2-(ethylamino)pyrido[2,3-d]pyrimidin-7-one]	77 nM
Cc1cccc(-c2ccc(-c3cc4cnc(NC(C)C)nc4n(CCN4CCNCC4)c3=O)c(Cl)c2)n1 [Example I-68, 6-(2-Chloro-4-(6-methylpyridin-2-yl)phenyl)-2-(isopropylamino)-8-(2-(piperazin-1-yl)ethyl)pyrido[2,3-d]pyrimidin-7(8H)-one]	1.6 nM
CCNc1ncc2cc(-c3ccc(-c4cncc(C)n4)cc3Cl)c(=O)n(C3CCN(C(=O)CN)C3)c2n1 (centres unmarked) [Example I-28, 8-(1-(2-Aminoacetyl)pyrrolidin-3-yl)-6-(2-chloro-4-(6-methylpyrazin-2-yl)phenyl)-2-(ethylamino)pyrido[2,3-d]pyrimidin-7(8H)-one]	25.7 nM
Cc1cccc(-c2ccc(-c3cc4cnc(NC5COC5)nc4n(CCCC(N)=O)c3=O)c(C)c2)n1 [Example I-71, 4-[6-[2-Methyl-4-(6-methyl-2-pyridyl)phenyl]-2-(oxetan-3-ylamino)-7-oxo-pyrido[2,3-d]pyrimidin-8-yl]butanamide]	11.3 nM
CNc1ncc2cc(-c3ccc(-c4cccc(C)n4)cc3Cl)c(=O)n(CS(=O)(=O)N3CCNCC3)c2n1 [Example I-162, 6-[2-chloro-4-(6-methyl-2-pyridyl)phenyl]-2-(methylamino)-8-(piperazin-1-ylsulfonylmethyl)pyrido[2,3-d]pyrimidin-7-one]	14.7 nM
Cc1cccc(-c2ccc(-c3cc4cnc(NC(C)C)nc4n(CCOCCN)c3=O)c(Cl)c2)n1 [Example I-60]	1.1 nM
CCNc1ncc2cc(-c3ccc(-c4cccc(C)n4)cc3Cl)c(=O)n(C3COC4(CCNC4)C3)c2n1 (centres unmarked) [Example I-121, 6-[2-Chloro-4-(6-methyl-2-pyridyl)phenyl]-2-(ethylamino)-8-(1-oxa-7-azaspiro[4.4]nonan-3-yl)pyrido[2,3-d]pyrimidin-7-one]	3.7 nM
CNc1ncc2cc(-c3ccc(-c4cncc(C)n4)cc3Cl)c(=O)n(CC(=O)NCCN)c2n1 [Example I-156, N-(2-aminoethyl)-2-[6-[2-chloro-4-(6-methylpyrazin-2-yl)phenyl]-2-(methylamino)-7-oxo-pyrido[2,3-d]pyrimidin-8-yl]acetamide]	14.4 nM
CCNc1ncc2cc(-c3ccc(-c4cncc(C)n4)cc3Cl)c(=O)n(CCN3CCNCC3=O)c2n1 [Example I-90, 6-[2-Chloro-4-(6-methylpyrazin-2-yl)phenyl]-2-(ethylamino)-8-[2-(2-oxopiperazin-1-yl)ethyl]pyrido[2,3-d]pyrimidin-7-one]	322 nM
CNc1ncc2cc(-c3ccc(-c4cncc(C)n4)cc3Cl)c(=O)n(CCCCCN)c2n1 [Example I-138, 8-(5-aminopentyl)-6-[2-chloro-4-(6-methylpyrazin-2-yl)phenyl]-2-(methylamino)pyrido[2,3-d]pyrimidin-7-one]	9.6 nM
CCc1cc(-c2cncc(C)n2)ccc1-c1cc2cnc(NC)nc2n(CCCN)c1=O [Example I-131, 8-(3-aminopropyl)-6-[2-ethyl-4-(6-methylpyrazin-2-yl)phenyl]-2-(methylamino)pyrido[2,3-d]pyrimidin-7-one]	32.5 nM
Cc1cncc(-c2ccc(-c3cc4cnc(NC5COC5)nc4n(C[C@@H]4CNCCO4)c3=O)c(Cl)c2)n1 [Example I-149, 6-[2-Chloro-4-(6-methylpyrazin-2-yl)phenyl]-8-[[(2S)-morpholin-2-yl]methyl]-2-(oxetan-3-ylamino)pyrido[2,3-d]pyrimidin-7-one]	9 nM
